Assays:
Format in all cases: cell-based, human
A549 cells [1] = test: Cell cycle analysis (PI, flow cytometry), A549; conditions: A549, 24 h, 10 µM
Protocol: (§1) Then, compounds were added into the wells and cells were further incubated for 24 h. After incubation, monolayer and supernatant cells were harvested and washed in PBS. Then, cells were centrifuged (monolayer—1200 rpm for 10 min, supernatant 3500 rpm for 10 min) and fixed in cold 70% ethanol. Pellets were kept at 4 °C for at least 2 h. Prior to analysis, cells were centrifuged and re-suspended in RNAsi (type 1-A; Sigma Aldrich)—PBS working solution (200 µg/mL). Samples were incubated at 37 °C for 10 min. At the end, 3 µL of 2 mg/mL propidium iodide (PI) (Sigma Aldrich) solution was added to each sample. Samples were kept in the dark prior to analysis. Analysis was performed on BD Accuri C6 Flow Cytometry (Becton–Dickinson). Etoposide (Calbiochem) was used as a reference drug. Experiments were done in triplicates.

A549 cells [2] = test: Apoptosis assay by annexin-V/PI double staining, A549; conditions: A549, 24 h, 75 µM; control 7.80%
Protocol: (§2) Compounds were added to the cells and further incubated for 24 h. After treatment, monolayer and supernatant cells were harvested, washed with PBS and centrifuged (monolayer at 1200 rpm for 10 min, supernatant at 3500 rpm for 10 min). Then, cells were re-suspended in binding buffer and stained with 2 µL of Annexin-V and […] of PI (ANNEXIN-V—FITC Apoptosis Detection Kit, Immunostep) in the dark for 10 min at room temperature. Cells were analysed by BD Accuri C6 Flow Cytometry (Becton–Dickinson). Etoposide (Calbiochem) was used as a reference drug. Experiments were done in triplicates.

EA.hy926 cells = test: MTT cytotoxicity assay, EA.hy926; conditions: Homo sapiens, EA.hy 926, 24 h, MTT, 24 h incubation; read-out: IC50 µM ± SD against EA.hy926
Excerpt: The EA.hy926 cells (the human umbilical vein, somatic cell hybrid) (American Type Culture Collection) are immortalized human umbilical vein endothelial cells. They have morphological, phenotypic and functional characteristics of human endothelial cells, without the limited lifespan. This cell line has been considered as a good model for anticancer drug screening and was chosen to evaluate the endothelial cytotoxicity of novel compounds.
(§3) The MTT assay was used to evaluate cell metabolic activity. The test principle is based on the determination of cell viability by measuring the metabolic activity in mitochondria. Enzymatically active mitochondria reduce the water-soluble MTT (3-(4,5-dimethylthiazol-2-yl)-2,5 diphenyltetrazoliumbromide) to blue–violet insoluble formazan. The number of viability cells is proportional to the colour intensity determined by photometric measurements (an analytical wavelength 570 nm) after dissolving the formazan in Dimethylsulfoxide (DMSO) (Serva) and Sorensen’s glycine buffer. MTT (Sigma Aldrich) was dissolved in Phosphate Buffered Saline (PBS) (PAN-Biotech) at a concentration of 0.5 mg/mL. Sorensen’s glycine buffer is made of 0.1 M glycine and 0.1 M NaCl, at pH 10.5. Studied compounds were dissolved in DMSO in order to receive stock solutions.
(§4) For the assay, cells were seeded into 96-well plates at density 10^4 cells per well and cultured for 24 h at 37 °C and 5% CO2. Then medium was removed, and cells were exposed to the 100 µL of the compound solutions over a range of concentrations (final DMSO concentration was below 0.2%) or nothing but culture medium (blank control). Pure DMSO was used as a positive control. After 24 h of incubation with the compound solutions, medium was removed and 50 µL of the MTT solution was added to each well and incubated in the dark for additional 2 h at 37 °C. Then the MTT solution was carefully removed and 100 µL of DMSO was added. Plates were incubated for 10 min at room temperature. Finally, 5 µL of Sorensen Buffer was added to each well. Plate was swayed, and the absorbance was measured by using microplate reader (Synergy H1, BioTek, Winooski, VT, USA) at a wavelength of 570 nm. The cell viability was expressed as a percentage of the control values (blank). The experiments were done in triplicate.

HT-29 cells [3] = test: Apoptosis assay by annexin-V/PI double staining, HT-29; conditions: HT-29, 24 h, 25 µM; control 8.62%
Protocol: as §2

HT-29 cells [4] = test: Cell cycle analysis (PI, flow cytometry), HT-29; conditions: HT-29, 24 h, 10 µM
Protocol: as §1

A549 cells [5] = test: MTT cytotoxicity assay, A549; conditions: Homo sapiens, A549, 24 h, MTT, 24 h incubation; read-out: IC50 µM ± SD against A549
Excerpt: A549 cell line (lung carcinoma from human) (European Collection of Cell Culture) and HT-29 cell line (colorectal adenocarcinoma from human) (American Type Culture Collection) were chosen to evaluate the cytotoxicity of novel compounds.
as §3, §4

SMILES: COc1cc([C@@H]2c3cc4c(cc3[C@@H](O[C@@H]3O[C@@H]5CO[C@@H](C)O[C@H]5[C@H](O)[C@H]3O)[C@H]3COC(=O)[C@H]23)OCO4)cc(OC)c1O [Etoposide, reference compound]
- Cells in G0/G1 phase (A549 cells [1]): 27.31%
- Cells in G2/M phase (A549 cells [1]): 66.02%
- Cells in S phase (A549 cells [1]): 6.67%
- Total apoptotic cells (A549 cells [2]): 43.46%
- IC50 (EA.hy926 cells): 155 ± 9.81 µM
- Total apoptotic cells (HT-29 cells [3]): 18.18%
- Cells in G2/M phase (HT-29 cells [4]): 73.84%
- IC50 (A549 cells [5]): 451 ± 18.3 µM

Source: publication PMC6745035, “Novel tetrahydroacridine derivatives with iodobenzoic moieties induce G0/G1 cell cycle arrest and apoptosis in A549 non-small lung cancer and HT-29 colorectal cancer cells” (Molecular and Cellular Biochemistry, 2019)
